Assay results from ChEMBL document CHEMBL4420080, “Inhibitors of sox18 protein activity for treating angiogenesis- and/or lymphangiogenesis-related diseases” (2018).
Active and inactive are the calls of the source. The calls are words filed in the database; no cut-off is given here.

Assays:
Danio rerio [1] = experiment: Induction of arterial and venous genes dys-regulation in zebrafish larvae harboring fli1 a:eGFP,-6.5kdrl:mCherry assessed as effect on cdh5 gene expression at 1.5 uM dosed starting from 16 hpf and measured at 24 and 48 hpf by qRT-PCR analysis; format: functional, organism-based
[2] = molecular target: Transcription factor SOX-9 (Homo sapiens) (UniProt P48436); experiment: Inhibition of SOX9 in HUVEC assessed as reduction of SOX9-SOX9 interactions up to 200 uM incubated for 45 mins by Alpha-screen assay; format: cell-based
Danio rerio [3] = experiment: Induction of arterial and venous genes dys-regulation in zebrafish larvae harboring fli1 a:eGFP,-6.5kdrl:mCherry assessed as effect on hey2 gene expression at 1.5 uM dosed starting from 16 hpf and measured at 24 and 48 hpf by qRT-PCR analysis; format: functional, organism-based
Danio rerio [4] = experiment: Induction of arterial and venous genes dys-regulation in zebrafish larvae harboring fli1 a:eGFP,-6.5kdrl:mCherry assessed as effect on mCherry gene expression at 1.5 uM dosed starting from 16 hpf and measured at 24 and 48 hpf by qRT-PCR analysis; format: functional, organism-based
Mus musculus = species: Mus musculus; experiment: Inhibition of mouse phorbol ester receptor at 10 uM relative to control
[5] = molecular target: Glutamate NMDA receptor (Rattus norvegicus) (UniProt P35439+Q00959+Q00960+Q00961+Q62645+Q8VHN2+Q9R1M7); experiment: Inhibition of rat NMDA glutamate receptor at 10 uM relative to control; format: protein-complex assay
4T1.2 [6] = experiment: Inhibition of tumor induced lymphangiogenesis response in mouse 4T1.2 cells implanted BALB/c mouse assessed as reduction in number of lymphatic endothelial cells at 25 mg/kg/day for 10 days by PROX1/podoplanin detection based immunofluorescent staining relative to control; format: functional; conditions: 4T1.2, 240 h
Rattus norvegicus = species: Rattus norvegicus; experiment: Inhibition of rat imidazoline I2 receptor at 10 uM relative to control
[7] = molecular target: Histone deacetylase 3 (Homo sapiens) (UniProt O15379); experiment: Inhibition of human HDAC3 at 10 uM relative to control
[8] = Cytotoxicity in African green monkey COS7 cells assessed as reduction in cell viability incubated for 24 hrs by Alamar blue dye based assay; parameters: species or system COS-7; conditions: chlorocebus aethiops
[9] = molecular target: T1, Transcription factor SOX-18 (Mus musculus) (UniProt P43680); experiment: Competitive binding affinity to full-length mouse SOX18 expressed in Sf9 cells assessed as reduction in SOX1 8- DNA binding using FAM-labelled Prox1 -DNA element at 1 to 1000 uM incubated for 5 mins in dark at room temperature, 10 mins at 37 degC and 30 mins at room temperature by fluorescence polarization assay
T1 sequence (whole entry): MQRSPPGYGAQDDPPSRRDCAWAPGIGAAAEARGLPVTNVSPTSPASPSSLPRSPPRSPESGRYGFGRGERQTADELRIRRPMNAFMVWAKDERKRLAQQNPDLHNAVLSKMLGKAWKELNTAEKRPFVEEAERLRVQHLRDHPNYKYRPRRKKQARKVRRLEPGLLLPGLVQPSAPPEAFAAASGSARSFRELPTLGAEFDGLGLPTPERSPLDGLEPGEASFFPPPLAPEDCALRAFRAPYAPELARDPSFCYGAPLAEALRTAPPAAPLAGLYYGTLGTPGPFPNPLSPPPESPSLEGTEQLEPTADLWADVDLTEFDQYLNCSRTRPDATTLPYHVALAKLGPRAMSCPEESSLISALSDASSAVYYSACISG

[10] = molecular target: Estrogen receptor (Homo sapiens) (UniProt P03372); experiment: Inhibition of human ERalpha at 10 uM relative to control
Danio rerio [11] = experiment: Induction of vascular phenotype changes in zebrafish larvae harboring fli1 a:eGFP,-6.5kdrl:mCherry assessed as induction of posterior cardinal vein enlargement with arteriovenous shunts and incomplete trunk circulation at 1.5 uM dosed starting from 16 hpf; format: functional, organism-based
[12] = molecular target: Alpha-1B adrenergic receptor (Rattus norvegicus) (UniProt P15823); experiment: Inhibition of rat adrenergic alpha1B receptor at 10 uM relative to control
[13] = molecular target: Adenosine receptor A1 (Homo sapiens) (UniProt P30542); experiment: Inhibition of human adenosine A1 receptor at 10 uM relative to control
[14] = molecular target: Transcriptional repressor CTCF (Homo sapiens) (UniProt P49711); experiment: Inhibition of CTCF in HUVEC assessed as reduction of CTCF transcriptional activity by genome-wide RNA-seq and ChlP-seq analysis; format: cell-based
Danio rerio [15] = experiment: Induction of arterial and venous genes dys-regulation in zebrafish larvae harboring fli1 a:eGFP,-6.5kdrl:mCherry assessed as effect on notch1b gene expression at 1.5 uM dosed starting from 16 hpf and measured at 24 and 48 hpf by qRT-PCR analysis; format: functional, organism-based
Danio rerio [16] = experiment: Induction of arterial and venous genes dys-regulation in zebrafish larvae harboring fli1 a:eGFP,-6.5kdrl:mCherry assessed as effect on prox1a gene expression at 1.5 uM dosed starting from 16 hpf and measured at 24 and 48 hpf by qRT-PCR analysis; format: functional, organism-based
[17] = molecular target: Transcription factor Jun (Homo sapiens) (UniProt P05412); experiment: Inhibition of c-JUN in HUVEC assessed as reduction of c-JUN transcriptional activity by genome-wide RNA-seq and ChlP-seq analysis; format: cell-based
[18] = molecular target: Transcription factor SOX-9 (Homo sapiens) (UniProt P48436); experiment: Inhibition of SOX9 (unknown origin) expressed in African green monkey COS7 cells assessed as reduction in SOX9 transcriptional activity at; format: cell-based
4T1.2 [19] = experiment: Antitumor activity against mouse 4T1.2 cells implanted in BALB/c mouse assessed as median disease latency time at 5 to 50 mg/kg/day for 10 days and measured up to 60 days after tumor inoculation; format: functional, organism-based
[20] = molecular target: Protein max (Homo sapiens) (UniProt P61244); experiment: Inhibition of MAX in HUVEC assessed as reduction of MAX transcriptional activity by genome-wide RNA-seq and ChlP-seq analysis; format: cell-based
4T1.2 [21] = experiment: Inhibition of tumor induced vascular response in mouse 4T1.2 cells implanted BALB/c mouse assessed as reduction in number of endothelial cells in tumor region at 25 mg/kg/day for 10 days by ERG/EMCN-detection based immunofluorescent staining relative to control; format: functional; conditions: 4T1.2, 240 h
[22] = molecular target: Muscarinic acetylcholine receptor M2 (Homo sapiens) (UniProt P08172); experiment: Inhibition of human muscarinic M2 receptor at 10 uM relative to control
[23] = molecular target: Cannabinoid receptor 1 (Homo sapiens) (UniProt P21554); experiment: Inhibition of human CB1 receptor at 10 uM relative to control
4T1.2 [24] = experiment: Inhibition of tumor induced vascular response in mouse 4T1.2 cells implanted BALB/c mouse assessed as reduction in volume of the blood vessels in tumor region at 25 mg/kg/day for 10 days by ERG/EMCN-detection based immunofluorescent staining relative to control; format: functional; conditions: 4T1.2, 240 h
[25] = molecular target: Beta-1 adrenergic receptor (Homo sapiens) (UniProt P08588); experiment: Inhibition of human adrenergic beta1 receptor at 10 uM relative to control
[26] = molecular target: NAD-dependent protein deacetylase sirtuin-1 (Homo sapiens) (UniProt Q96EB6); experiment: Inhibition of human Sirtuin1 at 10 uM relative to control
Danio rerio [27] = experiment: Induction of arterial and venous genes dys-regulation in zebrafish larvae harboring fli1 a:eGFP,-6.5kdrl:mCherry assessed as effect on […] gene expression at 1.5 uM dosed starting from 16 hpf and measured at 24 and 48 hpf by qRT-PCR analysis; format: functional, organism-based

Chain of Transcription factor SOX-9 (Homo sapiens) (P48436 whole entry): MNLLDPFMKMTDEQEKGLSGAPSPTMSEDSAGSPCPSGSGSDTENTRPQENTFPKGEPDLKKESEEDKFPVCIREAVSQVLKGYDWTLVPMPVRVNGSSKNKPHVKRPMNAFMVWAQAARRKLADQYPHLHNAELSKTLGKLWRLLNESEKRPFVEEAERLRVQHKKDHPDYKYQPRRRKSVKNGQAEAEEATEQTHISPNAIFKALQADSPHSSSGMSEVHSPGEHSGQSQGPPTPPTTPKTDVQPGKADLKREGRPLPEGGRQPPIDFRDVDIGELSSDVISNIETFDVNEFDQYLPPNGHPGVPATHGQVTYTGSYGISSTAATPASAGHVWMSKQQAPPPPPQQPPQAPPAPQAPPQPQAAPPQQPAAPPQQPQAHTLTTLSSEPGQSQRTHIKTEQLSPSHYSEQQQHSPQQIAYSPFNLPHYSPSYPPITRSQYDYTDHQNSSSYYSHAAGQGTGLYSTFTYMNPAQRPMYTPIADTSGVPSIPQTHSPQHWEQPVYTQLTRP
Chain of Transcription factor Jun (Homo sapiens) (P05412 whole entry): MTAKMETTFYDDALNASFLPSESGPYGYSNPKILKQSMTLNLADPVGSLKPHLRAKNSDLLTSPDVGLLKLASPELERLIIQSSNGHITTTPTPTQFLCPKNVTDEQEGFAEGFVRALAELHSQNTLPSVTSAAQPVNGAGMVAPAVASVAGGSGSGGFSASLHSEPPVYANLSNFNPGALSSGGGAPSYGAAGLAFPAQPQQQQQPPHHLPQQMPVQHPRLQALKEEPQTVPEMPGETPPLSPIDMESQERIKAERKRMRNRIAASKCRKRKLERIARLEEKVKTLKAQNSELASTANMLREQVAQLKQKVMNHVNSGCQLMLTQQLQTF
Chain of NAD-dependent protein deacetylase sirtuin-1 (Homo sapiens) (Q96EB6 whole entry): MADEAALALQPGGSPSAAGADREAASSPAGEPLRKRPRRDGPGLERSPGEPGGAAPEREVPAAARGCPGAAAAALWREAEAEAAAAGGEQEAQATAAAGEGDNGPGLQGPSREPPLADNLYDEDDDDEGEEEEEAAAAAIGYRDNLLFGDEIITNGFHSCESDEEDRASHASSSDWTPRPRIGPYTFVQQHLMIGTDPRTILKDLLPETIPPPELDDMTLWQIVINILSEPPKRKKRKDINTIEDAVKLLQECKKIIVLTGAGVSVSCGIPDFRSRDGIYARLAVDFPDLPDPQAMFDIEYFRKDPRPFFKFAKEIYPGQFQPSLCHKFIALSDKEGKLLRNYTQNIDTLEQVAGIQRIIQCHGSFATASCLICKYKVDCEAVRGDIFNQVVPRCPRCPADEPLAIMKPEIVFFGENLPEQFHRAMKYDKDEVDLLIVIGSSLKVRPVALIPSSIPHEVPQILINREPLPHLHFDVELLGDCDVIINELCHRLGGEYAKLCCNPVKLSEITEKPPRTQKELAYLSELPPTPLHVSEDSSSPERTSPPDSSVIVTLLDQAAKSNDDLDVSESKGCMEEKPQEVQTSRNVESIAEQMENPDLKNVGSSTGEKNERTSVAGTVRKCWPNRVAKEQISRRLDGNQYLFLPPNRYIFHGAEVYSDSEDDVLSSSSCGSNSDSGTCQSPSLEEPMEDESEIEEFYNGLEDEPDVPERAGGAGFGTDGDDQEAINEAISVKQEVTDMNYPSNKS
Chain of Adenosine receptor A1 (Homo sapiens) (P30542 whole entry): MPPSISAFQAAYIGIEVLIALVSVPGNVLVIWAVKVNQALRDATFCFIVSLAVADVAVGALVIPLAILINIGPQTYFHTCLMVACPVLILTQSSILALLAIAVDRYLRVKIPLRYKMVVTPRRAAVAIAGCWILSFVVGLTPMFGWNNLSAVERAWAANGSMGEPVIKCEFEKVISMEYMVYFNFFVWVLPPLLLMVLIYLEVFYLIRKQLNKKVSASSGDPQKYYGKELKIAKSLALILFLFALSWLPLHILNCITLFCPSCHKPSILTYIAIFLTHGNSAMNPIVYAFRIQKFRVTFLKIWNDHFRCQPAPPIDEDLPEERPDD
Chain of Alpha-1B adrenergic receptor (Rattus norvegicus) (P15823 whole entry): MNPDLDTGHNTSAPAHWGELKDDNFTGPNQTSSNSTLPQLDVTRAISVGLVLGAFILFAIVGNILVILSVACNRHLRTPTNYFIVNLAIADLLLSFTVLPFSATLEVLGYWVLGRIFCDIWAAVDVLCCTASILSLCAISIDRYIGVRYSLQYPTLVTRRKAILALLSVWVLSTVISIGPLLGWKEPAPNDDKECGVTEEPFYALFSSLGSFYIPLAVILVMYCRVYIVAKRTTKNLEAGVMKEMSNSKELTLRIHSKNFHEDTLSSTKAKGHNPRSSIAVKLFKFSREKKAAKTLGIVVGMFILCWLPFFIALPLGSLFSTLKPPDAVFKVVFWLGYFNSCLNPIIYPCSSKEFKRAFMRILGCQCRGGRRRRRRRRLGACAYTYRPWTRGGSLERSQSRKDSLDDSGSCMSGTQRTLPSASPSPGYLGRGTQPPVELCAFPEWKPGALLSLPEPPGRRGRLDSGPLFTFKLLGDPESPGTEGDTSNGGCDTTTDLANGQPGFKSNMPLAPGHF
Chain of Transcriptional repressor CTCF (Homo sapiens) (P49711 whole entry): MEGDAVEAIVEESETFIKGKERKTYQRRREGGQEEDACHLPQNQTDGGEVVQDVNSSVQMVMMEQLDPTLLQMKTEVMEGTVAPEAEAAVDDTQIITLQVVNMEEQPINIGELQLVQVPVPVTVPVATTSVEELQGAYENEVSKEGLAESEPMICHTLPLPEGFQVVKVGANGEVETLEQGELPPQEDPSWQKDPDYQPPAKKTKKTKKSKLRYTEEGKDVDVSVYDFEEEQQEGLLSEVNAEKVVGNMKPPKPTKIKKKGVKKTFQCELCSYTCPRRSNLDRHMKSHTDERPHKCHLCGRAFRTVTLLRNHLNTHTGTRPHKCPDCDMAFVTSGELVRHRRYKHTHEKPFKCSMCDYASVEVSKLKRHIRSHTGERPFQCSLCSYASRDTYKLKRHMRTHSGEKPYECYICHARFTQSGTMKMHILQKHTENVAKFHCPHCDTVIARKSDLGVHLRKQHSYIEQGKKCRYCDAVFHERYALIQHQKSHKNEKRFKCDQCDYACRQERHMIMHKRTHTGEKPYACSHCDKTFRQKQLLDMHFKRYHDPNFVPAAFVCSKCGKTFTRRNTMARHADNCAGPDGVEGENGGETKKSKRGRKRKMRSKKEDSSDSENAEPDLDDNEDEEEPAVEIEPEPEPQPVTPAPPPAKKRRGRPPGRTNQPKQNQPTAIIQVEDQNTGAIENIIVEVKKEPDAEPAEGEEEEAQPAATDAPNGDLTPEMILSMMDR
Chain of Protein max (Homo sapiens) (P61244 whole entry): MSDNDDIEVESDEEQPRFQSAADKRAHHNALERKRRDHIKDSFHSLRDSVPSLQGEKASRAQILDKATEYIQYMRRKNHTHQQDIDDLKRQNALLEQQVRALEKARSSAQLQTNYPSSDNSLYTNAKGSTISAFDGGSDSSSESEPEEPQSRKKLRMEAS
Chain of Muscarinic acetylcholine receptor M2 (Homo sapiens) (P08172 whole entry): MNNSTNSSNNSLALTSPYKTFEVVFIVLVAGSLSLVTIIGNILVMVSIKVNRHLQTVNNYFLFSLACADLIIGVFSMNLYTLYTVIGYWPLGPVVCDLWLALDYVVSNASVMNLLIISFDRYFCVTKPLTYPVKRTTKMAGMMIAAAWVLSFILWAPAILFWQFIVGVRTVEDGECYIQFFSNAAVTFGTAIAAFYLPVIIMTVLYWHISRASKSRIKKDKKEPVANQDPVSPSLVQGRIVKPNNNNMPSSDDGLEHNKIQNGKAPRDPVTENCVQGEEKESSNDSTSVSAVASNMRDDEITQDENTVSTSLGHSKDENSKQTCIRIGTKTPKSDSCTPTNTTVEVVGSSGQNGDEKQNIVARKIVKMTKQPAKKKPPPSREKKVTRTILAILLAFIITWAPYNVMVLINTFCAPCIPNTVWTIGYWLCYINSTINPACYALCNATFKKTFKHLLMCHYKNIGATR
Chain of Estrogen receptor (Homo sapiens) (P03372 whole entry): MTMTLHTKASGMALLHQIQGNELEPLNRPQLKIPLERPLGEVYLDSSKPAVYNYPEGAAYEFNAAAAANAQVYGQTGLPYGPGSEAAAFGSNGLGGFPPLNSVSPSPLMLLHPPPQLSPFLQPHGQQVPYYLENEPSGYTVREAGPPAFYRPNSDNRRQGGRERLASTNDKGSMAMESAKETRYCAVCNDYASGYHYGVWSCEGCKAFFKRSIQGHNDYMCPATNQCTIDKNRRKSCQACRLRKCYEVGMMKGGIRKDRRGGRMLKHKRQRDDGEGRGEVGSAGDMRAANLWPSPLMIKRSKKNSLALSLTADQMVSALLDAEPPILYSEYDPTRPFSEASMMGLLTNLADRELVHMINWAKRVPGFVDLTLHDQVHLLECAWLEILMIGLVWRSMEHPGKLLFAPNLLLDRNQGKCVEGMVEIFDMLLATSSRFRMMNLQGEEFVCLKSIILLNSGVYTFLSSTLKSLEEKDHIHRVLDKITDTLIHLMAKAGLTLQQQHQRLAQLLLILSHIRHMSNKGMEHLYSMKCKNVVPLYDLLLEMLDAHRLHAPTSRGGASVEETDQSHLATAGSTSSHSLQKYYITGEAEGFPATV
Chain of Histone deacetylase 3 (Homo sapiens) (O15379 whole entry): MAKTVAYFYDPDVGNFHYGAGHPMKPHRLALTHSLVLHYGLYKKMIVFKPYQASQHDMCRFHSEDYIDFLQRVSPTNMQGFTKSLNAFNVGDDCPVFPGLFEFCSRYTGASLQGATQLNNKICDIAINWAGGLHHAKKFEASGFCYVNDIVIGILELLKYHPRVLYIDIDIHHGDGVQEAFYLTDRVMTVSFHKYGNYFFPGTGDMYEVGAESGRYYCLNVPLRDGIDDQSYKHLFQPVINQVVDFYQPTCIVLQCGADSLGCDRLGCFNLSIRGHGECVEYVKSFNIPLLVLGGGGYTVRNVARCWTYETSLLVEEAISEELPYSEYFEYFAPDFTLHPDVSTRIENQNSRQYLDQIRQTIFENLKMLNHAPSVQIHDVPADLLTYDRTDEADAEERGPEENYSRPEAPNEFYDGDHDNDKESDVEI

## O=C(O)c1c(O)cccc1CCc1ccc2ccccc2c1
Danio rerio [1]
  Activity: Active
[2]
  inhibition: inactive
Danio rerio [3]
  Activity: Active
Danio rerio [4]
  Activity: Active
Mus musculus
  inhibition: 15%
[5]
  inhibition: -5%
4T1.2 [6]
  inhibition in vivo at 25 mg/kg/day: 70%
Rattus norvegicus
  inhibition: 11%
[7]
  inhibition: -4.8%
[8]
  CC50 at 24 h: 117 µM
[9]
  Activity: Active
[10]
  inhibition: -10%
Danio rerio [11]
  Activity: Active
[12]
  inhibition: -1%
[13]
  inhibition: -8%
[14]
  inhibition: inactive
Danio rerio [15]
  Activity: Active
Danio rerio [16]
  Activity: Active
[17]
  inhibition: inactive
[18]
  inhibition: inactive
4T1.2 [19]
  Activity: Dose-dependent effect
[20]
  inhibition: inactive
4T1.2 [21]
  inhibition in vivo at 25 mg/kg/day: 48%
[22]
  inhibition: 13%
[23]
  inhibition: 3%
4T1.2 [24]
  inhibition in vivo at 25 mg/kg/day: 55%
[25]
  inhibition: 6%
[26]
  inhibition: 0%
Danio rerio [27]
  Activity: Active
